≈ marks a conversion by molar mass, not a printed value. Where two headings read alike, the source gives them in different places.
Experiments:
[1] = system: S. aureus clinical isolates; test: microbe, parasite or virus in culture; type: cell-based; conditions: Staphylococcus aureus, read-out: MIC
[2] = system: S. aureus VISA ATCC 700699 GyrB R144I and GyrB I175T; test: Second-step frequency-of-resistance assay in GyrB single mutants; type: cell-based
Procedure: To determine the spontaneous frequency-of-resistance, approximately 10^10 cells from stationary-phase MHBII broth cultures of S. aureus ATCC 700699 and S. aureus ATCC 43300 were plated to antibiotic-containing plates according to a standard protocol to determine frequency-of-resistance. Prior to plating, bacteria were grown overnight in MHBII medium at 37 °C, 250 rpm, collected by centrifugation, and washed once in equal volumes of MHBII broth. From this concentrated cell suspension (250 μL), approximately 10^10 cells were then plated to each MHBII agarose plates. Using agarose instead of agar reduced drug-adsorption and improved the performance of the assay. […] All experiments were performed in at least 3 replicates. Plates were grown at 37 °C for 72 hours. Total CFUs were determined simultaneously in each experiment by plating appropriate dilutions to antibiotic-free MHBII agar plates. Finally, resistance frequencies for each strain were calculated by dividing the number of colonies formed after a 72-hour incubation at 37 °C by the initial viable cell count.

[3] = system: novobiocin-resistant S. aureus VISA ATCC 700699 mutants; test: MIC against novobiocin-resistant (novobiocin-adapted) strains; type: cell-based; conditions: for MIC: Staphylococcus aureus
Procedure: MICs were determined using a standard serial broth microdilution technique according to the CLSI guidelines. Briefly, bacterial strains were inoculated onto MHBII agar plates and were grown overnight at 37 °C. Next, 3 individual colonies from each strain were inoculated into 1 mL MHBII medium and propagated at 37 °C, 250 rpm overnight. In the cases of Enterococcus and Streptococcus sp., cells were plated to BHI agar plates, and BHI broth was used to determine MICs. […] Following dilutions, each well was seeded with 5×10^4 bacterial cells. All measurements were performed in 3 parallel replicates and to avoid possible edge effects in microwell plates, side rows (A and H) were filled with sterile medium. Following inoculations, plates were covered with lids and wrapped in polyethylene plastic bags to minimize evaporation but allow for O2 transfer. Plates were incubated at 37 °C under continuous shaking at 150 rpm for 18 hours. After incubation, OD600 of each well was measured using a BioTek Synergy 2 microplate reader.

[4] = target: T1, S. aureus topoisomerase IV (Staphylococcus aureus, UniProt P0C1S7); test: S. aureus topoisomerase IV gel-based assay; type: biochemical; conditions: quadruplicates
T1 construct: purchased Inspiralis Ltd., Norwich, UK
T1 sequence (P0C1S7 whole entry): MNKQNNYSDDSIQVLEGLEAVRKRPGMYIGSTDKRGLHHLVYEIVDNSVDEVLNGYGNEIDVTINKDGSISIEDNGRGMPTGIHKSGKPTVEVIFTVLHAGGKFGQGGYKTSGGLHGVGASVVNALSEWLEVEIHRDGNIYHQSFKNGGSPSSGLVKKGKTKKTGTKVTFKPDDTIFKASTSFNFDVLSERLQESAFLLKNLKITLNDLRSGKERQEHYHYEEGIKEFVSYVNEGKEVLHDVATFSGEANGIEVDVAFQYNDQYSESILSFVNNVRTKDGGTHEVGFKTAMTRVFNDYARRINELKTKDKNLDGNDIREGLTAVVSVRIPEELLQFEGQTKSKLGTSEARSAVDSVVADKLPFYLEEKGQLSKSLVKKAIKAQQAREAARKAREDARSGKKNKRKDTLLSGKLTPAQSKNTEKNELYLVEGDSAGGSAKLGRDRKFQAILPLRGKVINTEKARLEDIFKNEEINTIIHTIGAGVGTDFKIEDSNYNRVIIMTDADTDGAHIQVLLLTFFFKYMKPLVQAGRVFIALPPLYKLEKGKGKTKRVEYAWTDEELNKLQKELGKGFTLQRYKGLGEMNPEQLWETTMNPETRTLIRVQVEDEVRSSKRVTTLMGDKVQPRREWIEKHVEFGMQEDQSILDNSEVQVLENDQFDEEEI
T1 sequence (P0C1U9 whole entry, further chain): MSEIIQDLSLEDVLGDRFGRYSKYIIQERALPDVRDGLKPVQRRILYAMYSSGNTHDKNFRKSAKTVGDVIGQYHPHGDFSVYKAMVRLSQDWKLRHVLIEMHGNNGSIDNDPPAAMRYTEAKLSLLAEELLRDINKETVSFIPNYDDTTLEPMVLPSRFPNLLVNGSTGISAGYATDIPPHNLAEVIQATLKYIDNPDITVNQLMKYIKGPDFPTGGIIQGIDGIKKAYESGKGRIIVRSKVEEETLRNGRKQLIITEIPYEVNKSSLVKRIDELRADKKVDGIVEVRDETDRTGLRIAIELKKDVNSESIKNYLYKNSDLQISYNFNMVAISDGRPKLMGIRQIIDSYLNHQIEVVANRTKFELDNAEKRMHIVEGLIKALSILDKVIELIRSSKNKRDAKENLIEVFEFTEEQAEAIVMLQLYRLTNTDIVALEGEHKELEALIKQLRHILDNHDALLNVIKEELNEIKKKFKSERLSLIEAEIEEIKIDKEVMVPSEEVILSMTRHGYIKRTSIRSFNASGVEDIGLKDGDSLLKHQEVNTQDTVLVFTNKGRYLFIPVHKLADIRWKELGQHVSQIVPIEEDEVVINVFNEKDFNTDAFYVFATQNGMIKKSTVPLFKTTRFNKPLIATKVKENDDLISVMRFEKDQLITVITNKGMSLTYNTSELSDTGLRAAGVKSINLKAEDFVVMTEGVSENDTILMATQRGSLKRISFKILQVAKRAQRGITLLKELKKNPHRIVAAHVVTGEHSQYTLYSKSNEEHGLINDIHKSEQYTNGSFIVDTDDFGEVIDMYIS

Cc1[nH]c(C(=O)Nc2nc3c(OCc4ccccc4)cc(C(=O)O)cc3s2)c(Cl)c1Cl [ULD2]
MIC ([1]; MRSA, S. aureus IHMA 1766357, MRSA / VSSA): 0.12 µg/mL (≈ 0.252 µM)
MIC ([1]; MSSA / NRS 12 / VISA, S. aureus IHMA 1308244, NRS12, MSSA / VISA): 0.5 µg/mL (≈ 1.05 µM)
MIC ([1]; MSSA / NRS 13 / VISA, S. aureus IHMA 1308245, NRS13, MSSA / VISA): 0.5 µg/mL (≈ 1.05 µM)
MIC ([1]; MSSA / NRS 14 / VISA, S. aureus IHMA 1308246, NRS14, MSSA / VISA): 1 µg/mL (≈ 2.1 µM)
MIC ([1]; MSSA / NRS 17 / VISA, S. aureus IHMA 1308247, NRS17, MSSA / VISA): 1 µg/mL (≈ 2.1 µM)
MIC ([1]; MSSA / NRS 28 / VISA, S. aureus IHMA 1308249, NRS28, MSSA / VISA): 1 µg/mL (≈ 2.1 µM)
MIC ([1]; MSSA / NRS 52, S. aureus IHMA 1308252, NRS52, MSSA / VSSA* (*Expected VAN intermediate, confirmed VAN susceptible twice), test date 2018-11-07): 0.12 µg/mL (≈ 0.252 µM)
MIC ([1]; MSSA / USA100 / VRSA, S. aureus IHMA 672236, VRS6, MSSA / VRSA, USA100): 0.12 µg/mL (≈ 0.252 µM)
MIC ([1]; MSSA, S. aureus IHMA 1563826, MSSA / VSSA): 0.25 µg/mL (≈ 0.525 µM)
MIC ([1]; MSSA, S. aureus IHMA 1565492, MSSA / VSSA): 0.12 µg/mL (≈ 0.252 µM)
MIC ([1]; MSSA, S. aureus IHMA 1569499, MSSA / VSSA): 0.5 µg/mL (≈ 1.05 µM)
MIC ([1]; MSSA, S. aureus IHMA 1569754, MSSA / VSSA): 0.12 µg/mL (≈ 0.252 µM)
MIC ([1]; MSSA, S. aureus IHMA 1574202, MSSA / VSSA): 0.25 µg/mL (≈ 0.525 µM)
MIC ([1]; MSSA, S. aureus IHMA 1575652, MSSA / VSSA): 0.25 µg/mL (≈ 0.525 µM)
MIC ([1]; MSSA, S. aureus IHMA 1575779, MSSA / VSSA): 0.5 µg/mL (≈ 1.05 µM)
MIC ([1]; MSSA, S. aureus IHMA 1576329, MSSA / VSSA): 0.5 µg/mL (≈ 1.05 µM)
MIC ([1]; MSSA, S. aureus IHMA 1577800, MSSA / VSSA): 0.25 µg/mL (≈ 0.525 µM)
MIC ([1]; MSSA, S. aureus IHMA 1578560, MSSA / VSSA): 0.5 µg/mL (≈ 1.05 µM)
MIC ([1]; MSSA, S. aureus IHMA 1580233, MSSA / VSSA): 0.12 µg/mL (≈ 0.252 µM)
MIC ([1]; MSSA, S. aureus IHMA 1580925, MSSA / VSSA): 0.25 µg/mL (≈ 0.525 µM)
MIC ([1]; MSSA, S. aureus IHMA 1580955, MSSA / VSSA): 0.5 µg/mL (≈ 1.05 µM)
MIC ([1]; MSSA, S. aureus IHMA 1582586, MSSA / VSSA): 0.5 µg/mL (≈ 1.05 µM)
MIC ([1]; MSSA, S. aureus IHMA 1582691, MSSA / VSSA): 0.25 µg/mL (≈ 0.525 µM)
MIC ([1]; MSSA, S. aureus IHMA 1584230, MSSA / VSSA): 0.5 µg/mL (≈ 1.05 µM)
MIC ([1]; MSSA, S. aureus IHMA 1587279, MSSA / VSSA): 0.5 µg/mL (≈ 1.05 µM)
MIC ([1]; MSSA, S. aureus IHMA 1591459, MSSA / VSSA): 0.25 µg/mL (≈ 0.525 µM)
MIC ([1]; MSSA, S. aureus IHMA 1592749, MSSA / VSSA): 0.5 µg/mL (≈ 1.05 µM)
MIC ([1]; MSSA, S. aureus IHMA 1592751, MSSA / VSSA): 0.25 µg/mL (≈ 0.525 µM)
MIC ([1]; MSSA, S. aureus IHMA 1594297, MSSA / VSSA): 1 µg/mL (≈ 2.1 µM)
MIC ([1]; MSSA, S. aureus IHMA 1597120, MSSA / VSSA): 0.5 µg/mL (≈ 1.05 µM)
MIC ([1]; MSSA, S. aureus IHMA 1597125, MSSA / VSSA): 0.5 µg/mL (≈ 1.05 µM)
MIC ([1]; MSSA, S. aureus IHMA 1599157, MSSA / VSSA): 0.5 µg/mL (≈ 1.05 µM)
MIC ([1]; MSSA, S. aureus IHMA 1599506, MSSA / VSSA): 0.12 µg/mL (≈ 0.252 µM)
MIC ([1]; MSSA, S. aureus IHMA 1602078, MSSA / VSSA): 0.5 µg/mL (≈ 1.05 µM)
MIC ([1]; MSSA, S. aureus IHMA 1604586, MSSA / VSSA): 0.25 µg/mL (≈ 0.525 µM)
MIC ([1]; MSSA, S. aureus IHMA 1604609, MSSA / VSSA): 0.5 µg/mL (≈ 1.05 µM)
MIC ([1]; MSSA, S. aureus IHMA 1609919, MSSA / VSSA): 0.25 µg/mL (≈ 0.525 µM)
MIC ([1]; MSSA, S. aureus IHMA 1622864, MSSA / VSSA): 0.25 µg/mL (≈ 0.525 µM)
MIC ([1]; MSSA, S. aureus IHMA 1626392, MSSA / VSSA): 0.5 µg/mL (≈ 1.05 µM)
MIC ([1]; MSSA, S. aureus IHMA 1713793, MSSA / VSSA): 0.5 µg/mL (≈ 1.05 µM)
Resistant colony number ([2]; VISA GyrB I175T, 4xMIC): lawn
Resistant colony number ([2]; VISA GyrB R144I, 4xMIC): lawn
Resistant colony number ([2]; VISA GyrB R144I, 8xMIC): lawn
Frequency-of-Resistance ([2]; VISA GyrB R144I, 12xMIC): 4.65E-08
Resistant colony number ([2]; VISA GyrB R144I, 12xMIC): 1312
Frequency-of-Resistance ([2]; VISA GyrB R144I, 16xMIC): 3.55E-11
Resistant colony number ([2]; VISA GyrB R144I, 16xMIC): 1
cross-resistance of novobiocin-resistant isolates ([3]; 9 independently evolved novobiocin-resistant isolates, in words): no cross-resistance
MIC ([3]; WT S. aureus VISA ATCC 700699, read-out: MIC): 0.02 µg/mL
MIC ([3]; novobiocin-adapted Evolved 1): 0.016 µg/mL
MIC ([3]; novobiocin-adapted Evolved 2): 0.016 µg/mL
MIC ([3]; novobiocin-adapted Evolved 3): 0.016 µg/mL
MIC ([3]; novobiocin-adapted Evolved 4): 0.063 µg/mL
MIC ([3]; novobiocin-adapted Evolved 5): 0.031 µg/mL
MIC ([3]; novobiocin-adapted Evolved 6): 0.016 µg/mL
MIC ([3]; novobiocin-adapted Evolved 7): 0.016 µg/mL
MIC ([3]; novobiocin-adapted Evolved 8): 0.016 µg/mL
MIC ([3]; novobiocin-adapted Evolved 9): 0.016 µg/mL
IC50 [4]: 2 ± 0.3 nM

Source: PMC7561186, “Rational design of balanced dual-targeting antibiotics with limited resistance” (PLoS Biology, 2020)
